{
  "source": "patent US7141691B2",
  "about": "“Protein-bound derivatives of platinum complexes containing cyclobutane1, 1-dicarboxyllate ligands” (KTB Tumorforschungs GmbH, priority 2003, dated 2006)",
  "test_system": "MaTu (mammary carcinoma)",
  "assay": "Efficacy in vivo, MaTu tumor model in naked mice (change in tumor volume)",
  "conditions": "DACH-Pt-CB-1-Mal 75 and 100 mg/kg i.v. once on day 7, carboplatin 100 mg/kg once on day 7 or 75 mg/kg on days 7 and 14",
  "experimental": "The invention is elucidated in more detail by the following examples in conjunction with the figures. […] Animals: naked mice Tumor model: MaTu (mammary carcinoma) Treatment: DACH-Pt-CB-1-Mal (75 and 100 mg/kg) and carboplatin (100 mg/kg) once on day 7, carboplatin (75 mg/kg) on each of days 7 and 14; i.v. (carboplatin and derivatives each in 0.15 0.3 ml glucose phosphate buffer pH 6.5).",
  "data": [
    {"smiles": "O=C(CCOCCN1C(=O)C=CC1=O)OC1CC2(C1)C(=O)[O][Pt]1([NH]C3CCCC[C@H]3[NH]1)[O]C2=O", "note": "(stereo partly drawn) [DACH-Pt-CB-1-Mal, trans-(R,R/S,S)-cyclohexane-1,2-diaminoplatinum(II)-[3-(6-maleinimido-4-oxacaproyl)cyclobutane-1,1-dicarboxylate]]", "values": [
      {"measurement": "in vivo efficacy (change in the tumor volume) compared to carboplatin", "result": "increased compared to carboplatin"}
    ]}
  ]
}
